Like-named read-outs stand apart in the source and are kept apart here. Marks after values point to notes of the source that are not given here.
Columns and labels:
[1] = Folin–Ciocalteu reagent (FCR) reduction; format: biochemical; conditions: Folin–Ciocalteau reagent reduction, gallic acid equivalents; mean ± standard error
Method: (§1) N,N-dimethyl-p-phenylenediamine (DMPD) and 2,2′-azino-bis(3-ethylbenzothiazolin-6-sulfonic acid (ABTS) cation radical scavenging and ferric reducing antioxidant power (FRAP) were measured using kits from Bioquochem (Llanera-Asturias, Spain). Antiradical activity by 2,2-diphenyl-1-picrylhydrazyl radical scavenging assay, reducing capacity using Folin–Ciocalteau reagent (FCR), and anti-lipoperoxidant activity using inhibition of lipid peroxidation of rat liver microsomes induced by tert-butyl hydroperoxide were determined as described previously with modifications described in detail in our previous research.

[2] = Inhibition of lipoperoxidation (Lpx) induced by tert-butyl hydroperoxide; format: biochemical; conditions: rat liver microsomal membranes, mean ± standard error
Method: as §1

[3] = DMPD+ cation radical scavenging; format: biochemical; conditions: vitamin C equivalents, mean ± standard error
Method: as §1

[4] = Log p, octan-1-ol / phosphate buffer partition; format: physicochemical; conditions: octan-1-ol / 6.6 mM phosphate buffer pH 7.4, 25 °C
Method: The hydrophobicity of the compounds was determined by measuring their partition coefficient P in a mixture of two immiscible phases—octan-1-ol and 6.6 mM phosphate buffer pH 7.4. Stock solutions (0.5 mM) were prepared in octan-1-ol (parent compounds) and in the buffer (sulfated compounds). The stock solutions (150 µL) were mixed with 150 µL of the immiscible phase in microcentrifuge tubes (1.5 mL); shaken for 2 h (750 rpm, 25 °C); and after incubation, the phases were separated. Water phases were diluted 1:1 with the mobile phase (acetonitrile/deionized water/HCO2H, 5:95:0.1; v/v) and analyzed by HPLC using the gradient G3 (see Section 3.1.3). Octan-1-ol phases were evaporated in the stream of air (70 °C), then dissolved in 10 µL of DMSO, and mixed with 90 µL of mobile phase and analyzed by HPLC. The log p values were calculated from the respective peak heights (h) using the formula log p = log(hoctanol/hbuffer). For comparison, log p values were calculated using the Molinspiration property engine v2016.10 (http://www.molinspiration.com, Molinspiration Cheminformatics, Slovensky Grob, Slovakia) (access on 26th October 2017).

[5] = ABTS+ cation radical scavenging; format: biochemical; conditions: vitamin C equivalents, mean ± standard error
Method: as §1

[6] = biological target: T1, aryl sulfotransferase from rat liver (AST IV) (Rattus norvegicus, UniProt P17988); experiment: Substrate specificity of AST IV (whole E. coli cells, p-NPS donor); format: in vitro ADME; set-up: key: +: isolated sulfated product(s) and/or release of p-nitrophenol (p-NP); –: no formation of p-NP and/or isolated sulfated products; conditions: whole E. coli cells expressing AST IV, 37 °C, 72 h
T1 construct: made in house; host or cells: E. coli BL21 (DE3) Gold (whole cells used as catalyst)
Method: The plasmid bearing astIV gene was kindly provided by Prof. L. Elling, RWTH Aachen, Germany. The enzyme was expressed in E. coli BL21 (DE3) Gold as described, with modifications reported in our previous work. Whole E. coli cells producing the enzyme, freshly prepared according to the literature, were employed in the biotransformation experiments as a catalyst.
Silybin, silybin A, silybin B, silychristin, and silydianin (separately, each 50 mg, 0.104 mmol) and p-nitrophenyl sulfate (p-NPS, 35 mg, 0.136 mmol; Sigma-Aldrich, St. Louis, MO, USA) were dissolved in 3 mL DMSO, and 2 g (wet based) of whole cells expressing AST IV resuspended in K-phosphate buffer (pH 7.5, 17 mL) were added. The reaction mixture was incubated on a rotary shaker at 37 °C for 24 h. The cells were then removed by centrifugation (30 min, 5000 rpm, 5404 R Eppendorf, Germany), a new portion of fresh cells (2 g in 15 mL, wet based, resuspended in K-phosphate buffer) were added to the supernatant and incubated for 24 h. This step was repeated once more with a total reaction time of 72 h. The reaction was monitored by HPLC and after 72 h, the reaction mixtures, containing the sulfated product(s), were purified by preparative HPLC employing Asahipak GS-310 20F (Shodex, Tokyo, Japan) column with isocratic elution with 100% methanol. The fraction containing the putative sulfated product(s) was evaporated, dissolved in 1 mL of 80% methanol, and loaded onto a Sephadex LH-20 column (15 g dry weight, 12 mm i.d.) packed and eluted with 80% methanol. Only one sulfated product was obtained; silybin B 20-O-sulfate (14.5 mg, 0.03 mmol, yield 25%), whose identity was confirmed by comparison with previously published data.

[7] = Ferric reducing antioxidant power (FRAP); format: biochemical; conditions: equivalents of Fe^2+, mean ± standard error
Method: as §1

DPPH radical scavenging = format: biochemical; conditions: mean ± standard error
Method: as §1

[8] = Stability of the isolated sulfate; format: physicochemical; conditions: after isolation
Method: It quickly decomposed into a mixture of at least five products and, therefore, it was not studied further.
Silydianin (150 mg, 0.311 mmol) was sulfated using the same procedure as for silybin. Silydianin-19-O-sulfate was obtained as a yellowish solid (101 mg, 58.3%). Its structure was determined by HRMS (m/z calcd. for C25H21O13 S 561.07083, found 561.07141) and NMR (see Figure S13 and Table S5, Supplementary Material).

[9] = set-up: method as in PMID 26260337, PMID 16919302; conditions: read-out: DPPH scavenging IC50; cited from earlier work

T1 sequence (P17988 whole entry): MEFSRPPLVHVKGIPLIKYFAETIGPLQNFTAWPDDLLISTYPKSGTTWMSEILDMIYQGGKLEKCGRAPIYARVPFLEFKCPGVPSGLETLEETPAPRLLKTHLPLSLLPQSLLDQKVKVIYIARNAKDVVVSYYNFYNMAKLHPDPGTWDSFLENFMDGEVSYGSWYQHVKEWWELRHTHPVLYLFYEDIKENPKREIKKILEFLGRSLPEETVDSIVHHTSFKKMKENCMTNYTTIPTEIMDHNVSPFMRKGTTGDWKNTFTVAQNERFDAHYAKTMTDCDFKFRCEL

IC50 [2] | logP at 2 h [4] | IC50 (DPPH radical scavenging) | Stability of the compound [8] | Stability of the compound ([8]; listed as silydianin-19-O-sulfate) | SMILES | FCR [GAE] [1] | DMPD^+ [CE] [3] | ABTS^+ [CE] [5] | Formation of p-NP [6] | FRAP [Fe^2+] [7] | IC50 [9]
68.6 ± 2.2 µM | 2.17 | 546 ± 17 µM |  |  | COc1cc([C@@H]2Oc3cc([C@H]4Oc5cc(O)cc(O)c5C(=O)[C@@H]4O)ccc3O[C@H]2CO)ccc1O [Silybin B, silybin B, reference compound] | 0.36 ± 0.03 ^k GAE | 1.09 ± 0.01 ^n CE | 0.97 ± 0.05 ^i CE | + ^a | 0.04 ± 0.00 ^q Fe^2+ | 
 |  |  | unstable | extremely unstable | COc1cc(C2C3C=C(C4Oc5cc(O)cc(O)c5C(=O)C4O)C4C2COC4(O)C3=O)ccc1OS(=O)(=O)O (stereo not shown) [Silydianin-19-O-sulfate] |  |  |  |  |  | 
 |  |  |  |  | O=C1c2c(O)cc(O)cc2OC(c2ccc(O)c(O)c2)C1O (stereo not shown) [taxifolin] |  |  |  |  |  | 6 to 10 µM
48.6 ± 0.4 µM | 1.52 | 490 ± 21 µM |  |  | COc1cc([C@H]2Oc3cc([C@H]4Oc5cc(O)cc(O)c5C(=O)[C@@H]4O)ccc3O[C@@H]2CO)ccc1O [Silybin A, silybin A, reference compound] | 0.33 ± 0.02 ^k GAE | 0.96 ± 0.01 ^n CE | 1.01 ± 0.03 ^i CE | – ^c | 0.06 ± 0.00 Fe^2+ | 

Reference: article PMC6121260, “Sulfated Metabolites of Flavonolignans and 2,3-Dehydroflavonolignans: Preparation and Properties” (International Journal of Molecular Sciences, 2018)
